Assay results as given in patent publication US20240174662A1, “SMALL MOLECULE INHIBITORS OF SALT INDUCIBLE KINASES” (Janssen Biotech, Inc., priority 2021, published 2024).

Target: SIK2 (Homo sapiens (Human), UniProt Q9H0K1)
Assay: SIK2 Enzymatic Assay Version 2 (High ATP)
Format: biochemical
Conditions: 3 mM ATP and 200 μM HDAC5tide final, ADP-Glo Max luminescence
Outline: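 Run at room temperature; SIK2 enzyme at 6 nM (2× final) preincubated with compound 30 min before reaction. ADP formation detected by ADP-Glo Max (2 h reagent, 1 h detection) with luminescence read-out.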

Chain of SIK2 (Q9H0K1 whole entry, species assumed): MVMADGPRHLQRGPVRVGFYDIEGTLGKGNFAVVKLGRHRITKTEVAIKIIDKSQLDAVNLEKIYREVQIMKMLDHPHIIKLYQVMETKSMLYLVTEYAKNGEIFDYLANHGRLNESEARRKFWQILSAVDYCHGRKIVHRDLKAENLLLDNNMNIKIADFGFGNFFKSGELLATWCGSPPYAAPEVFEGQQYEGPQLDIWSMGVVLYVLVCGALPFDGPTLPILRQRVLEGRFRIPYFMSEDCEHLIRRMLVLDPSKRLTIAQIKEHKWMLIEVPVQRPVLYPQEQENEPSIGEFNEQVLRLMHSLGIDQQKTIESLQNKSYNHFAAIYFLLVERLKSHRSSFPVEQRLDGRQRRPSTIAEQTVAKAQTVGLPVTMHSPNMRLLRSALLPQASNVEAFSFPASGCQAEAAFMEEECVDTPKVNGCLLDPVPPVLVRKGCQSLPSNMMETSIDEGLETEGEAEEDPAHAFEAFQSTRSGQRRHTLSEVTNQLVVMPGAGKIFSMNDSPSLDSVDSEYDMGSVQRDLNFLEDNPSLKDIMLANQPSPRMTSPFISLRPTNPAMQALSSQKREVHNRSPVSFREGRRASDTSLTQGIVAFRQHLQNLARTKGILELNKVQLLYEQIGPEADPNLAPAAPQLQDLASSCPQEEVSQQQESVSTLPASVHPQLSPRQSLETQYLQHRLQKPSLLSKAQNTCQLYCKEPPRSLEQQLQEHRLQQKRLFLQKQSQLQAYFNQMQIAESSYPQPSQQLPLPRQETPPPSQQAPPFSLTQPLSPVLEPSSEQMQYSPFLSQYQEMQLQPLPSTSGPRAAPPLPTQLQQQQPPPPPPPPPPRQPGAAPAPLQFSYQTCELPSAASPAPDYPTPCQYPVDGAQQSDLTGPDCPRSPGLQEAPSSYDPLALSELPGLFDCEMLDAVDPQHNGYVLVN

| IC50 | SMILES |
| --- | --- |
| 12.2 nM | Cc1cncc(Nc2cc3cc(-c4c(CO[C@H]5CN(C)C[C@H]5C)cnn4C)ccn3n2)n1 (stereo in doubt) [Example 378, CIS—*R, *R-5-[4-[(1,4-dimethylpyrrolidin-3-yl)oxymethyl]-2-methyl-pyrazol-3-yl]-N-(6-methylpyrazin-2-yl)pyrazolo[1,5-a]pyridin-2-amine] |
| 2.2 nM | Cc1cncc(Nc2cc3cc(-c4c(CO[C@@H]5CN(C)C[C@@H]5C)cnn4C)ccn3n2)n1 (stereo in doubt) [Example 379, CIS—*S, *S-5-[4-[(1,4-dimethylpyrrolidin-3-yl)oxymethyl]-2-methyl-pyrazol-3-yl]-N-(6-methylpyrazin-2-yl)pyrazolo[1,5-a]pyridin-2-amine] |
| 27.3 nM | Cc1cnc(Nc2cc3cc(-c4c(CO[C@H]5CN(C)C[C@@H]5C)cnn4C)ccn3n2)cn1 (stereo in doubt) [Example 469, (rac-trans)-5-[4-[(1,4-dimethylpyrrolidin-3-yl)oxymethyl]-2-methyl-pyrazol-3-yl]-N-(5-methylpyrazin-2-yl)pyrazolo[1,5-a]pyridin-2-amine] |
| < 0.847 nM | Cc1cc(Nc2cc3cc(-c4c(OC[C@H]5CCN5C)cnn4C)ccn3n2)nc(C)n1 [Example 2, N-(2,6-dimethylpyrimidin-4-yl)-5-[2-methyl-4-[[(2R)-1-methylazetidin-2-yl]methoxy]pyrazol-3-yl]pyrazolo[1,5-a]pyridin-2-amine] |
| 8.5 nM | CN1CC(C)(C)[C@H]1COc1cnn(C)c1-c1ccn2nc(NC(=O)C3CC3)cc2c1 [Example 3, N-[5-[2-methyl-4-[[(2S)-1,3,3-trimethylazetidin-2-yl]methoxy]pyrazol-3-yl]pyrazolo[1,5-a]pyridin-2-yl]cyclopropanecarboxamide] |
| 7.6 nM | Cn1ncc(OC[C@H]2NCC2(C)C)c1-c1ccn2nc(NC(=O)C3CC3)cc2c1 [Example 4, N-[5-[4-[[(2S)-3,3-dimethylazetidin-2-yl]methoxy]-2-methyl-pyrazol-3-yl]pyrazolo[1,5-a]pyridin-2-yl]cyclopropanecarboxamide] |
| 14 nM | Cn1ncc(OC[C@H]2CNCCO2)c1-c1ccn2nc(NC(=O)C3CC3)cc2c1 [Example 6, N-[5-[2-methyl-4-[[(2R)-morpholin-2-yl]methoxy]pyrazol-3-yl]pyrazolo[1,5-a]pyridin-2-yl]cyclopropanecarboxamide] |
| 78.7 nM | CN1CC[C@H](Oc2cnn(C)c2-c2ccn3nc(Nc4cncc(C(F)(F)F)n4)cc3c2)C1 [Example 7, 5-[2-methyl-4-[(3S)-1-methylpyrrolidin-3-yl]oxy-pyrazol-3-yl]-N-[6-(trifluoromethyl)pyrazin-2-yl]pyrazolo[1,5-a]pyridin-2-amine] |
| 18.9 nM | CN1CC(COc2cnn(C)c2-c2ccn3nc(NC(=O)C4CC4)cc3c2)C1 [Example 8, N-[5-[2-methyl-4-[(1-methylazetidin-3-yl)methoxy]pyrazol-3-yl]pyrazolo[1,5-a]pyridin-2-yl]cyclopropanecarboxamide] |
| 988 nM | CN1C[C@@H](C(F)(F)F)[C@@H]1COc1cnn(C)c1-c1ccn2nc(NC(=O)C3CC3)cc2c1 [Example 10, N-[5-[2-methyl-4-[[(2R,3R)-1-methyl-3-(trifluoromethyl)azetidin-2-yl]methoxy]pyrazol-3-yl]pyrazolo[1,5-a]pyridin-2-yl]cyclopropanecarboxamide] |
| 117 nM | CC[C@@H]1CN(C)[C@@H]1COc1cnn(C)c1-c1ccn2nc(NC(=O)C3CC3)cc2c1 [Example 11, N-[5-[4-[[(2S,3R)-3-ethyl-1-methyl-azetidin-2-yl]methoxy]-2-methyl-pyrazol-3-yl]pyrazolo[1,5-a]pyridin-2-yl]cyclopropanecarboxamide] |
| 117 nM | C[C@H]1CN(C)[C@@H]1COc1cnn(C)c1-c1ccn2nc(NC(=O)C3CC3)cc2c1 [Example 12, N-[5-[4-[[(2S,3S)-1,3-dimethylazetidin-2-yl]methoxy]-2-methyl-pyrazol-3-yl]pyrazolo[1,5-a]pyridin-2-yl]cyclopropanecarboxamide] |
| 1.7 nM | C[C@@H]1C[C@H]1C(=O)Nc1cc2cc(-c3c(OC[C@H]4CCN4C)cnn3C)ccn2n1 [Example 14, (1R,2R)-2-methyl-N-[5-[2-methyl-4-[[(2R)-1-methylazetidin-2-yl]methoxy]pyrazol-3-yl]pyrazolo[1,5-a]pyridin-2-yl]cyclopropanecarboxamide] |
| 9.1 nM | C[C@H]1C[C@@H]1C(=O)Nc1cc2cc(-c3c(OC[C@H]4CCN4C)cnn3C)ccn2n1 [Example 15, (1S,2S)-2-methyl-N-[5-[2-methyl-4-[[(2R)-1-methylazetidin-2-yl]methoxy]pyrazol-3-yl]pyrazolo[1,5-a]pyridin-2-yl]cyclopropanecarboxamide] |
| < 0.847 nM | Cc1cc(Nc2cc3cc(-c4c(OC[C@H]5CCN5C)cnn4C)ccn3n2)nnc1C [Example 17, N-(5,6-Dimethylpyridazin-3-yl)-5-[2-methyl-4-[[(2R)-1-methylazetidin-2-yl]methoxy]pyrazol-3-yl]pyrazolo[1,5-a]pyridin-2-amine] |
| 1 nM | CCN1CC[C@@H]1COc1cnn(C)c1-c1ccn2nc(Nc3cc(C)c(C)nn3)cc2c1 [Example 18, (R)—N-(5,6-Dimethylpyridazin-3-yl)-5-(4-((1-ethylazetidin-2-yl)methoxy)-1-methyl-1H-pyrazol-5-yl)pyrazolo[1,5-a]pyridin-2-amine] |
| 1.2 nM | CCN1CC[C@@H]1COc1cnn(C)c1-c1ccn2nc(Nc3cc(C)ncn3)cc2c1 [Example 19, 5-[4-[[(2R)-1-Ethylazetidin-2-yl]methoxy]-2-methyl-pyrazol-3-yl]-N-(6-methylpyrimidin-4-yl)pyrazolo[1,5-a]pyridin-2-amine] |
| < 0.847 nM | CCN1CC[C@@H]1COc1cnn(C)c1-c1ccn2nc(Nc3cncc(C)n3)cc2c1 [Example 20, (R)-5-(4-((1-Ethylazetidin-2-yl)methoxy)-1-methyl-1H-pyrazol-5-yl)-N-(6-methylpyrazin-2-yl)pyrazolo[1,5-a]pyridin-2-amine] |
| 0.9 nM | CCN1CC[C@@H]1COc1cnn(C)c1-c1ccn2nc(Nc3cnc(C)cn3)cc2c1 [Example 21, (R)-5-(4-((1-Ethylazetidin-2-yl)methoxy)-1-methyl-1H-pyrazol-5-yl)-N-(5-methylpyrazin-2-yl)pyrazolo[1,5-a]pyridin-2-amine] |
| < 0.847 nM | CCN1CC[C@@H]1COc1cnn(C)c1-c1ccn2nc(Nc3cnc(C)c(C)n3)cc2c1 [Example 22, (R)—N-(5,6-Dimethylpyrazin-2-yl)-5-(4-((1-ethylazetidin-2-yl)methoxy)-1-methyl-1H-pyrazol-5-yl)pyrazolo[1,5-a]pyridin-2-amine] |
| 1.2 nM | Cc1ncc(Nc2cc3cc(-c4c(OC[C@H]5CCN5C)cnn4C)ccn3n2)nc1C [Example 23, N-(5,6-Dimethylpyrazin-2-yl)-5-[2-methyl-4-[[(2R)-1-methylazetidin-2-yl]methoxy]pyrazol-3-yl]pyrazolo[1,5-a]pyridin-2-amine] |
| 34.9 nM | C[C@@H]1CN(C)[C@H]1COc1cnn(C)c1-c1ccn2nc(NC(=O)C3CC3)cc2c1 [Example 24, N-[5-[4-[[(2R,3R)-1,3-Dimethylazetidin-2-yl]methoxy]-2-methyl-pyrazol-3-yl]pyrazolo[1,5-a]pyridin-2-yl]cyclopropanecarboxamide] |
| 5.8 nM | CCN1CC[C@@H]1COc1cnn(C)c1-c1ccn2nc(NC(=O)[C@H]3C[C@@H]3C)cc2c1 [Example 25, (1S,2S)—N-[5-[4-[[(2R)-1-ethylazetidin-2-yl]methoxy]-2-methyl-pyrazol-3-yl]pyrazolo[1,5-a]pyridin-2-yl]-2-methyl-cyclopropanecarboxamide] |
| 319 nM | CN1CC[C@@H]1COc1cnn(C)c1-c1ccn2nc(NC(=O)c3cnn(C)c3)cc2c1 [Example 26, 1-methyl-N-[5-[2-methyl-4-[[(2R)-1-methylazetidin-2-yl]methoxy]pyrazol-3-yl]pyrazolo[1,5-a]pyridin-2-yl]pyrazole-4-carboxamide] |
| 11.8 nM | Cn1ncc(OC[C@@H](O)c2ccccc2)c1-c1ccn2nc(NC(=O)C3CC3)cc2c1 [Example 27, N-[5-[4-[(2S)-2-hydroxy-2-phenyl-ethoxy]-2-methyl-pyrazol-3-yl]pyrazolo[1,5-a]pyridin-2-yl]cyclopropanecarboxamide] |
| 360 nM | COC1(COc2noc(C)c2-c2ccn3nc(NC(=O)C4CC4)cc3c2)CN(C)C1 [Example 29, N-[5-[3-[(3-methoxy-1-methyl-azetidin-3-yl)methoxy]-5-methyl-isoxazol-4-yl]pyrazolo[1,5-a]pyridin-2-yl]cyclopropanecarboxamide] |
| 5.2 nM | COC1(COc2noc(C)c2-c2ccn3nc(Nc4cc(C)nc(C)n4)cc3c2)CNC1 [Example 30, N-(2,6-dimethylpyrimidin-4-yl)-5-[3-[(3-methoxyazetidin-3-yl)methoxy]-5-methyl-isoxazol-4-yl]pyrazolo[1,5-a]pyridin-2-amine] |
| 1 nM | Cc1onc(OC[C@@H](N)c2ccccc2)c1-c1ccn2nc(NC(=O)C3CC3)cc2c1 [Example 31, N-[5-[3-[(2S)-2-amino-2-phenyl-ethoxy]-5-methyl-isoxazol-4-yl]pyrazolo[1,5-a]pyridin-2-yl]cyclopropanecarboxamide] |
| 6.6 nM | Cc1cc(Nc2cc3cc(-c4c(O[C@@H]5CNC[C@@H]5F)cnn4C(F)F)ccn3n2)nc(C)n1 [Example 32, 5-[2-(difluoromethyl)-4-[(3R,4S)-4-fluoropyrrolidin-3-yl]oxy-pyrazol-3-yl]-N-(2,6-dimethylpyrimidin-4-yl)pyrazolo[1,5-a]pyridin-2-amine] |
| 1.3 nM | Cc1cc(Nc2cc3cc(-c4c(OC[C@H]5CCN5C)cnn4C(F)F)ccn3n2)nn(C)c1=O [Example 33, 6-[[5-[2-(difluoromethyl)-4-[[(2R)-1-methylazetidin-2-yl]methoxy]pyrazol-3-yl]pyrazolo[1,5-a]pyridin-2-yl]amino]-2,4-dimethyl-pyridazin-3-one] |
